Results taken from BindingDB's records for doi:10.1021/jm901710h (Nerviano Medical Sciences, 2010).

Target: 3-phosphoinositide-dependent protein kinase 1, PDPK1 (Homo sapiens) (UniProt O15530)
Test: Inhibition of PDK1

Sequence of 3-phosphoinositide-dependent protein kinase 1, PDPK1 (Homo sapiens) (O15530 whole entry, looked up): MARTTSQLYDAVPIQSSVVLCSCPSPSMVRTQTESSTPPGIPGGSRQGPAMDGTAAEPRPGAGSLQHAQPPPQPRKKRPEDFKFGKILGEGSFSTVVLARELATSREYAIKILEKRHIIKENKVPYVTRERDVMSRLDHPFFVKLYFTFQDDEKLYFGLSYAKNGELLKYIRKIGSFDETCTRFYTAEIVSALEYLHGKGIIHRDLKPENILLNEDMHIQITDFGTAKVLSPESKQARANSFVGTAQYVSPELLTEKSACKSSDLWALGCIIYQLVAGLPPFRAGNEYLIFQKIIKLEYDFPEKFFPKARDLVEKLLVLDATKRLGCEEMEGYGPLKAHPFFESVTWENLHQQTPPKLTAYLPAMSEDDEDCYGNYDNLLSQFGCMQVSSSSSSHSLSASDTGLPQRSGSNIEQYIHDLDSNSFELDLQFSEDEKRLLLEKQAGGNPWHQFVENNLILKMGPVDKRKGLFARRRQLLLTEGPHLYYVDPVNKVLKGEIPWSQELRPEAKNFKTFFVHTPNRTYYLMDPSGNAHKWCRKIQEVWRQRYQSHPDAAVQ

Compound	IC50 [µM]
Cn1nc(C(N)=O)c2c1-c1nc(NC3CCN(C(=O)c4ccccc4)CC3)ncc1CC2 [1-Methyl-8-{[1-(phenylcarbonyl)piperidin-4-yl]amino}-4,5-dihydro-1H-pyrazolo[4,3-h]quinazoline-3-carboxamide]	> 10
CC(=O)N1CCC(Nc2ncc3c(n2)-c2c(c(C(N)=O)nn2C)CC3)CC1 [8-[(1-Acetylpiperidin-4-yl)amino]-1-methyl-4,5-dihydro-1H-pyrazolo[4,3-h]quinazoline-3-carboxamide]	> 10
